{"source": "paper PMC11802874", "about": "“The hypolipidemic effect of MI-883, the combined CAR agonist/ PXR antagonist, in diet-induced hypercholesterolemia model” (Nature Communications, 2025)", "key": {"[1]": {"assay": "Metabolic stability in human liver S9 fraction", "experimental": "(§1) Shimadzu HPLC system including vacuum degasser, gradient pumps, reverse phase HPLC column, column oven, and autosampler with an API 4000 QTRAP mass spectrometer (Applied Biosystems/MDS Sciex (AB Sciex) with Turbo V ion source and TurboIonspray interface were used. The reference compound midazolam, which is metabolized both by phase I and phase II enzymes, was used. The elimination constant (kel), half-life (t1/2), and intrinsic clearance (Clint) were determined[19] (Table S1).\nSupplementary Figure 1. […] Test compounds (1 μM, final DMSO concentration 1%) were incubated at 37 °C with shaking at 100 rpm. Four time points over 120 minutes have been analyzed. The reactions were stopped by adding 420 μL of acetonitrile-water mixture (90:10). Supernatants were analyzed by the HPLC system coupled with a tandem mass spectrometer. The percentage (in % of initial concertation) of the test compounds remaining after incubation in plasma and their half-lives (t1/2) were calculated. […] The stability of the compound was tested in human liver S9 fraction. Cofactors were used such as UDPGA (for glucuronidation), PAPS (for sulfation), and reduced glutathione (for conjugation of GSH). Compounds were tested in triplicate with or without NADPH. Propantheline and midazolam were used as unstable control compounds in the experiments. Data represent the means±S.D. from at least three independent samples."}, "[2]": {"assay": "Metabolic stability in mouse liver S9 fraction", "settings": "male, CD-1, mouse, s9", "experimental": "as §1"}, "HepaRG KO CAR cells": {"tested_on": "HepaRG KO CAR cells", "assay": "RT-qPCR mRNA expression in HepaRG KO CAR cells", "format": "cell-based, human", "settings": "Phenobarbital 500 μM, CITCO 1 μM, MI 883 1 μM; ctrl = 1", "source_text": "(§2) HepaRG cells from Biopredic (Rennes, France) were cultivated and differentiated on the 12-well plates. […] Several batches of HepaRG KO CAR (CAR Knockout HepaRG™ Cells, MTOX1012-1VL, RRID:CVCL_B6AA) and PXR Knockout HepaRG™ Cells, MTOX1011-1VL, RRID:CVCL_B6AS) cells have been obtained from Sigma-Aldrich/Merck (Darmstadt, Germany) and cultivated according to the provider’s protocols. […] Experiments with HepaRG KO PXR and HepaRG KO CAR cells have been performed in duplicates at least in two independent experiments.\n(§3) RT-qPCR was used to examine gene expression in 2D and 3D PHH, HepaRG cells, or in mouse liver or intestine (ileum) samples as we have described before[60]–[62].\n(§4) All qRT-qPCR experiments including Trizol reagent (Life Technologies) total RNA isolation, reverse-transcription using a random hexaprimer, and the MMLV Reverse Transcriptase Kit (ThermoFisher Scientific) we have described before^19. qPCR was performed using TaqMan Fast Advanced Master Mix with TaqMan probes (ThermoFisher Scientific). […] The delta-delta method was used for gene expression quantification normalized to at least two reference genes. Three technical replicates were used for each reaction considering the MIQE guidelines. Data are presented as fold induction to vehicle-treated cells/animals."}, "[3]": {"tested_on": "PXR-responsive CYP3A4(pER6)-luc construct", "assay": "CYP3A4(pER6)-luc luciferase reporter assay in HepG2 cells"}, "[4]": {"tested_on": "LS174T cells (endogenous PXR)", "assay": "CYP3A4 mRNA RT-qPCR in LS174T cells", "source_text": "LS174T human colon adenocarcinoma cells (RRID:CVCL_1384) were used in induction experiments with the subsequent CYP3A4 mRNA RT-qPCR analysis as they express functional endogenous PXR."}, "murine Car": {"tested_on": "murine Car", "settings": "cited from earlier work"}, "CAR-LBD": {"target": "T1, CAR-LBD (Homo sapiens, UniProt Q14994)", "T1 construct": "HIS-tagged CAR-LBD (ThermoFisher Sciences, Cat. No PV4836); purchased ThermoFisher PV4836", "T1 sequence (Q14994 109-348 isoform Q14994-2 limits assumed)": "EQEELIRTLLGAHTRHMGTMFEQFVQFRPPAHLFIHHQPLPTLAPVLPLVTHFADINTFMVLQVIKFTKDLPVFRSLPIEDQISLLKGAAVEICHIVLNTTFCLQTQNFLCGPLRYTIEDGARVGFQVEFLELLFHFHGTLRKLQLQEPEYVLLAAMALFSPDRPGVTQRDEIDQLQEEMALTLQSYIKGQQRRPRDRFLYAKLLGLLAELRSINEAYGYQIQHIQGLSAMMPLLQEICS", "assay": "MARCoNI CAR-LBD coregulator interaction array", "format": "biochemical", "settings": "100 μM", "experimental": "The reaction was performed in a fully automated microarray processing and fluorescent imaging platform (PamStation12) at 20 °C for 80 cycles (two cycles per minute). After removal of the unbound CAR-LBD receptor by washing each array with 25 µl Tris-buffered Saline (TBS) buffer, fluorescent images of the PamChip microarrays were obtained using the PamStation12, and then were analyzed for quantification of CAR binding using BioNavigator software (PamGene International B.V.). For data and statistical analysis, BioNavigator was used.\nModulation index (MI) is the log10-transformed relative binding value, which is calculated by the compound’s binding value, relative to the vehicle control (DMSO) binding value."}, "HepaRG cells": {"tested_on": "HepaRG cells", "assay": "RT-qPCR mRNA expression in differentiated HepaRG cells", "source_text": "as §2, §3, §4"}, "[5]": {"settings": "normal mice, ref 10 of the reply (Dempsey et al.)"}}, "note": "Where “and” joins values, the source holds several entries; their conditions need not be identical. Identical values can stand only once.", "data": [{"molecule": "Cc1ncc2n1-c1ccc(Cl)cc1C(c1ccccc1F)=NC2", "note": "[Midazolam, midazolam]", "values": [{"measurement": "half-life at 2 µM", "setting": "[1]; human, s9", "value": "6.3 ± 0.3", "unit": "min"}, {"measurement": "microsomal CLint at 2 µM", "setting": "[1]; human, s9", "value": "55 ± 2.5", "unit": "µL/min/mg"}, {"measurement": "Stability in S9 fraction (human liver), % remaining", "setting": "[1]; time 0 (min), 2 μM", "value": 100}, {"measurement": "Stability in S9 fraction (human liver), % remaining", "setting": "[1]; time 20", "value": 94}, {"measurement": "Stability in S9 fraction (human liver), % remaining", "setting": "[1]; time 40", "value": 53}, {"measurement": "Stability in S9 fraction (human liver), % remaining", "setting": "[1]; time 60", "value": 18}, {"measurement": "Stability in S9 fraction (human liver), % remaining", "setting": "[1]; time 120", "value": 1}, {"measurement": "half-life", "setting": "[2]", "value": 3.1, "unit": "min"}, {"measurement": "microsomal CLint", "setting": "[2]", "value": 113, "unit": "µL/min/mg"}]}, {"molecule": "CCC1(c2ccccc2)C(=O)NC(=O)NC1=O", "note": "[Phenobarbital]", "values": [{"measurement": "CYP2B6 mRNA, RT-qPCR, HepaRG KO CAR (Fig. 1f), replicates", "setting": "HepaRG KO CAR cells", "value": "2.7 and 1.95 and 2.4"}]}, {"molecule": "CCOP(=O)(OCC)C(=Cc1cc(C(C)(C)C)c(O)c(C(C)(C)C)c1)P(=O)(OCC)OCC", "note": "[SR12813]", "values": [{"measurement": "pER6-luc luciferase gene reporter assay (Fig1 m), replicates", "setting": "[3]; single agent 1μM, ctrl ~1", "value": "6.4 and 6.3 and 4.7"}, {"measurement": "pER6-luc luciferase gene reporter assay (Fig1 m), replicates", "setting": "[3]; single agent 10μM", "value": "11.93 and 6.55 and 11"}, {"measurement": "RT-qPCR in LS174T (Fig 1 l, CYP3A4 mRNA), replicates", "setting": "[4]; single agent 1μM, ctrl = 1", "value": "1.75 and 3.85 and 3.1"}]}, {"molecule": "Clc1cnc(Oc2ccc(Oc3ncc(Cl)cc3Cl)cc2)c(Cl)c1", "note": "[TCPOBOP]", "values": [{"measurement": "suppression of atherosclerotic lesions in the aortic valves", "setting": "murine Car; Ldlr –/– mice", "value": 60, "unit": "%"}, {"measurement": "decrease of cholesterol content in the liver", "setting": "murine Car; after 2 months", "value": 25, "unit": "%"}, {"measurement": "decrease of cholesterol content in the whole body", "setting": "murine Car; after 2 months", "value": "~50", "unit": "%"}, {"measurement": "increase of fecal excretion of 3H-labeled bile acids", "setting": "murine Car; mice", "value": "~ 40%"}, {"measurement": "colon bsh activity compared to control animals", "setting": "murine Car; [5]", "value": 30, "unit": "%"}, {"measurement": "increase of colon unconjugated and total BA pools (not significant)", "setting": "murine Car; [5]", "value": "about 1.4 fold"}]}, {"molecule": "Clc1ccccc1C(c1ccccc1)(c1ccccc1)n1ccnc1", "note": "[clotrimazole, reference compound]", "values": [{"measurement": "CAR-coregulator interaction profile", "setting": "CAR-LBD", "value": "releasing most of the coactivator proteins"}]}, {"molecule": "CO[C@H]1/C=C/O[C@@]2(C)Oc3c(C)c(O)c4c(O)c(c(/C=N/N5CCN(C)CC5)c(O)c4c3C2=O)NC(=O)/C(C)=C\\C=C\\[C@H](C)[C@H](O)[C@@H](C)[C@@H](O)[C@@H](C)[C@H](OC(C)=O)[C@@H]1C", "note": "[rifampicin, reference compound]", "values": [{"measurement": "PCSK9 mRNA in HepaRG cells", "setting": "HepaRG cells; Supplementary Fig. 10b", "value": "Marginal effect"}, {"measurement": "SQLE mRNA in HepaRG cells", "setting": "HepaRG cells; rifampicin (5 μM)", "value": "weakly but significantly upregulated"}]}, {"molecule": "SPA70 [reference compound]", "values": [{"measurement": "pER6-luc luciferase gene reporter assay (Fig1 m), replicates", "setting": "[3]; Rif 1μM + SPA70 10μM", "value": "1.57 and 1.64 and 1.5"}, {"measurement": "pER6-luc luciferase gene reporter assay (Fig1 m), replicates", "setting": "[3]; SR12813 1μM + SPA70 10μM", "value": "1.2 and 2 and 3.55"}, {"measurement": "pER6-luc luciferase gene reporter assay (Fig1 m), replicates", "setting": "[3]; single agent 1μM, ctrl ~1", "value": "1.15 and 1.67 and 1.39"}, {"measurement": "pER6-luc luciferase gene reporter assay (Fig1 m), replicates", "setting": "[3]; single agent 10μM", "value": "1 and 1.1 and 1.26"}, {"measurement": "RT-qPCR in LS174T (Fig 1 l, CYP3A4 mRNA), replicates", "setting": "[4]; Rif 1μM + test compound 10μM", "value": "0.37 and 0.6 and 0.8"}, {"measurement": "RT-qPCR in LS174T (Fig 1 l, CYP3A4 mRNA), replicates", "setting": "[4]; SR12813 1μM + test compound 10μM", "value": "0.46 and 0.35 and 0.34"}, {"measurement": "RT-qPCR in LS174T (Fig 1 l, CYP3A4 mRNA), replicates", "setting": "[4]; single agent 10μM", "value": "0.29 and 0.5 and 0.49"}, {"measurement": "basal expression of SQLE mRNA in HepaRG cells", "setting": "HepaRG cells", "value": "downregulated"}, {"measurement": "rifampicin induction of SQLE mRNA in HepaRG cells", "setting": "HepaRG cells; MI-883 at 1 μM, SPA70", "value": "abrogated"}, {"measurement": "CYP2B6 expression relative to control (replicates)", "setting": "HepaRG cells; SPA70 1 μM", "value": "0.7099 and 0.6385"}, {"measurement": "CYP2B6 expression relative to control (replicates)", "setting": "HepaRG cells; SPA70 1 μM + CITCO (1 μM)", "value": "0.8 and 0.8395 and 0.9953"}, {"measurement": "CYP2B6 expression relative to control (replicates)", "setting": "HepaRG cells; SPA70 5 μM", "value": "0.4419 and 0.6247 and 0.5722"}, {"measurement": "CYP2B6 expression relative to control (replicates)", "setting": "HepaRG cells; SPA70 5 μM + Rif (5 μM)", "value": "0.8063 and 0.705 and 0.7533"}, {"measurement": "CYP3A4 expression relative to control (replicates)", "setting": "HepaRG cells; SPA70 5 μM + Rif (5 μM)", "value": "1.181 and 0.9078 and 1.057"}, {"measurement": "CYP2B6 expression relative to control (replicates)", "setting": "HepaRG cells; SPA70 10 μM", "value": "0.4185 and 0.6476 and 0.5707 and 0.3103"}, {"measurement": "CYP2B6 expression relative to control (replicates)", "setting": "HepaRG cells; SPA70 10 μM + CITCO (1 μM)", "value": "0.9283 and 0.5126 and 0.8752"}, {"measurement": "CYP2B6 expression relative to control (replicates)", "setting": "HepaRG cells; SPA70 10 μM + Rif (5 μM)", "value": "0.4242 and 0.5514 and 0.5133"}, {"measurement": "CYP3A4 expression relative to control (replicates)", "setting": "HepaRG cells; SPA70 10 μM + Rif (5 μM)", "value": "0.8451 and 0.9487 and 0.8513 and 0.8231"}, {"measurement": "CYP2B6 expression relative to control (replicates)", "setting": "HepaRG cells; SPA70 20 μM", "value": "0.8031 and 0.3464"}, {"measurement": "CYP2B6 expression relative to control (replicates)", "setting": "HepaRG cells; SPA70 20 μM + CITCO (1 μM)", "value": "1.219 and 0.6292 and 0.9541"}, {"measurement": "CYP2B6 expression relative to control (replicates)", "setting": "HepaRG cells; SPA70 20 μM + Rif (5 μM)", "value": "0.5214 and 0.5645"}, {"measurement": "CYP3A4 expression relative to control (replicates)", "setting": "HepaRG cells; SPA70 20 μM + Rif (5 μM)", "value": "0.8451 and 0.7532"}, {"measurement": "rifampicin-induced and basal CYP3A4 and CYP2B6 mRNA expression in HepaRG cells", "setting": "HepaRG cells; Supplementary Fig. 10", "value": "suppressed"}]}, {"molecule": "SPA-70", "values": [{"measurement": "CYP3A4 expression relative to control (replicates)", "setting": "HepaRG cells; SPA-70 1 μM", "value": "0.8854 and 0.7984"}, {"measurement": "SQLE expression relative to control (mean)", "setting": "HepaRG cells; SPA-70 1 μM + Rif (5 μM)", "value": 0.6659}, {"measurement": "SQLE expression relative to control (mean)", "setting": "HepaRG cells; SPA-70 1 μM, 48 h", "value": 0.6886}, {"measurement": "CYP3A4 expression relative to control (replicates)", "setting": "HepaRG cells; SPA-70 5 μM", "value": "0.7429 and 0.6513 and 0.7215"}, {"measurement": "SQLE expression relative to control (mean)", "setting": "HepaRG cells; SPA-70 5 μM + Rif (5 μM)", "value": 0.7312}, {"measurement": "SQLE expression relative to control (mean)", "setting": "HepaRG cells; SPA-70 5 μM, 24 h", "value": 0.9488}, {"measurement": "SQLE expression relative to control (mean)", "setting": "HepaRG cells; SPA-70 5 μM, 48 h", "value": 0.6267}, {"measurement": "CYP3A4 expression relative to control (replicates)", "setting": "HepaRG cells; SPA-70 10 μM", "value": "0.443 and 0.6539 and 0.5479 and 0.7562"}, {"measurement": "SQLE expression relative to control (mean)", "setting": "HepaRG cells; SPA-70 10 μM + Rif (5 μM)", "value": 0.7448}, {"measurement": "SQLE expression relative to control (mean)", "setting": "HepaRG cells; SPA-70 10 μM, 24 h", "value": 0.7277}, {"measurement": "SQLE expression relative to control (mean)", "setting": "HepaRG cells; SPA-70 10 μM, 48 h", "value": 0.6494}, {"measurement": "CYP3A4 expression relative to control (replicates)", "setting": "HepaRG cells; SPA-70 20 μM", "value": "0.5871 and 0.5215"}, {"measurement": "SQLE expression relative to control (mean)", "setting": "HepaRG cells; SPA-70 20 μM + Rif (5 μM)", "value": 0.8792}, {"measurement": "SQLE expression relative to control (mean)", "setting": "HepaRG cells; SPA-70 20 μM, 48 h", "value": 0.7487}]}]}
